Assay: Phase 1 study: safety and tolerability
Type: in vivo
Description: The maximum tolerated dose (MTD) of DZD1516 was defined based on safety data and the Bayesian optimal interval (BOIN) design (Additional file 1). The definition of DLT is provided in Additional file 1.
The AE grading was assessed according to the NCI-Common Terminology Criteria for Adverse Events (CTCAE) (version 5.0) and was monitored until 28 days after the last dose.
Eligible patients received single oral dosing of DZD1516 on Cycle 0 Day 1 (C0D1), followed by a 7-day washout. Twice daily oral dosing (bid) of DZD1516 was commenced from C1D1 in a continuous 21-day cycle until disease progression, unacceptable toxicity, or withdrawal of consent. All doses were taken under fed conditions (within 30 minutes after a meal).
Planned dosing consisted of 25, 50, 100, 200, 300, and 400 mg. Each dose escalation cohort will comprise a minimum of three and a maximum of six evaluable patients (except only one patient in the starting dose cohort). The maximum tolerated dose of DZD1516 was defined according to safety data and the Bayesian optimal interval (BOIN) design. Dose escalation/de-escalation rule with target toxicity rate for the MTD is 0.30 with interval of (0.20, 0.33).
DLTs were any adverse event (AE) not clearly attributable to the patient’s disease, including ≥ grade 4 hematological toxicities present for ≥ 4 days, grade 3 thrombocytopenia with bleeding, or grade 4 thrombocytopenia lasting for > 5 days, ≥ grade 3 non-hematological toxicities that is dose-limiting in the judgment of the investigators. Any other toxicity that is greater than that at baseline, is clinically significant or unacceptable, and is judged to be a DLT by the SRC. Exceptions included alopecia of any grade and isolated grade 3 laboratory change without clinical sequelae or clinical significance.
Safety evaluations were conducted at screening, on Day 1, 8, and 15 of Cycle 1, on Day 1 of each subsequent treatment cycle, at the end-of-treatment visit, and clinically indicated. Safety assessments included clinical laboratory measurements (hematology, chemistry, coagulation, and urinalysis), electrocardiogram (ECG), Echocardiogram/MUGA scan, ECOG performance status, vital signs, and physical examinations.

SMILES: COc1cc(O[C@H]2CCN(C)CC2(F)F)c2c(Nc3ccc(Oc4ccn5ncnc5c4)c(C)c3)ncnc2c1 [DZD1516]
- Nervous system disorders, Any Grade (50 mg (N = 4)): 1 (25.0) n (%)
- Nervous system disorders, ≥ Grade 3 (50 mg (N = 4)): 0 (0.0) n (%)
- Participants with any TEAE, Any Grade (50 mg (N = 4)): 3 (75.0) n (%)
- Participants with any TEAE, ≥ Grade 3 (50 mg (N = 4)): 0 (0.0) n (%)
- Platelet count decreased, Any Grade (50 mg (N = 4)): 1 (25.0) n (%)
- Platelet count decreased, ≥ Grade 3 (50 mg (N = 4)): 0 (0.0) n (%)
- Proteinuria, Any Grade (50 mg (N = 4)): 1 (25.0) n (%)
- Proteinuria, ≥ Grade 3 (50 mg (N = 4)): 0 (0.0) n (%)
- Renal and urinary disorders, Any Grade (50 mg (N = 4)): 1 (25.0) n (%)
- Renal and urinary disorders, ≥ Grade 3 (50 mg (N = 4)): 0 (0.0) n (%)
- Subjects with any TEAE (50 mg (N = 4)): 3 (75.0) n (%)
- Subjects with any drug-related TEAE (50 mg (N = 4)): 3 (75.0) n (%)
- Vomiting, Any Grade (50 mg (N = 4)): 0 (0.0) n (%)
- Vomiting, ≥ Grade 3 (50 mg (N = 4)): 0 (0.0) n (%)
- White blood cell count decreased, Any Grade (50 mg (N = 4)): 1 (25.0) n (%)
- White blood cell count decreased, ≥ Grade 3 (50 mg (N = 4)): 0 (0.0) n (%)
- Alanine aminotransferase increased, Any Grade (100 mg (N = 4)): 0 (0.0) n (%)
- Alanine aminotransferase increased, ≥ Grade 3 (100 mg (N = 4)): 0 (0.0) n (%)
- Anemia, Any Grade (100 mg (N = 4)): 1 (25.0) n (%)
- Anemia, ≥ Grade 3 (100 mg (N = 4)): 0 (0.0) n (%)
- Any TEAE: Grade 3 (100 mg (N = 4)): 1 (25.0) n (%)
- Any TEAE: Leading to death (100 mg (N = 4)): 0 (0.0) n (%)
- Any TEAE: Leading to dose reduction (100 mg (N = 4)): 0 (0.0) n (%)
- Any TEAE: Leading to treatment discontinuation (100 mg (N = 4)): 0 (0.0) n (%)
- Any TEAE: Leading to treatment interruption (100 mg (N = 4)): 1 (25.0) n (%)
- Any TEAE: SAE (100 mg (N = 4)): 1 (25.0) n (%)
- Aspartate aminotransferase increased, Any Grade (100 mg (N = 4)): 0 (0.0) n (%)
- Aspartate aminotransferase increased, ≥ Grade 3 (100 mg (N = 4)): 0 (0.0) n (%)
- Blood and lymphatic system disorders, Any Grade (100 mg (N = 4)): 1 (25.0) n (%)
- Blood and lymphatic system disorders, ≥ Grade 3 (100 mg (N = 4)): 0 (0.0) n (%)
- Blood bilirubin increased, Any Grade (100 mg (N = 4)): 0 (0.0) n (%)
- Blood bilirubin increased, ≥ Grade 3 (100 mg (N = 4)): 0 (0.0) n (%)
- Cardiac disorders, Any Grade (100 mg (N = 4)): 0 (0.0) n (%)
- Cardiac disorders, ≥ Grade 3 (100 mg (N = 4)): 0 (0.0) n (%)
- Constipation, Any Grade (100 mg (N = 4)): 1 (25.0) n (%)
- Constipation, ≥ Grade 3 (100 mg (N = 4)): 0 (0.0) n (%)
- Decreased appetite, Any Grade (100 mg (N = 4)): 1 (25.0) n (%)
- Decreased appetite, ≥ Grade 3 (100 mg (N = 4)): 0 (0.0) n (%)
- Dizziness, Any Grade (100 mg (N = 4)): 1 (25.0) n (%)
- Dizziness, ≥ Grade 3 (100 mg (N = 4)): 0 (0.0) n (%)
- Drug-related TEAE: Grade 3 (100 mg (N = 4)): 1 (25.0) n (%)
- Drug-related TEAE: Leading to death (100 mg (N = 4)): 0 (0.0) n (%)
- Drug-related TEAE: Leading to dose reduction (100 mg (N = 4)): 0 (0.0) n (%)
- Drug-related TEAE: Leading to treatment discontinuation (100 mg (N = 4)): 0 (0.0) n (%)
- Drug-related TEAE: Leading to treatment interruption (100 mg (N = 4)): 1 (25.0) n (%)
- Drug-related TEAE: SAE (100 mg (N = 4)): 1 (25.0) n (%)
- Fatigue, Any Grade (100 mg (N = 4)): 1 (25.0) n (%)
- Fatigue, ≥ Grade 3 (100 mg (N = 4)): 0 (0.0) n (%)
- Gastrointestinal disorders, Any Grade (100 mg (N = 4)): 2 (50.0) n (%)
- Gastrointestinal disorders, ≥ Grade 3 (100 mg (N = 4)): 1 (25.0) n (%)
- General disorders and administration site conditions, Any Grade (100 mg (N = 4)): 1 (25.0) n (%)
- General disorders and administration site conditions, ≥ Grade 3 (100 mg (N = 4)): 0 (0.0) n (%)
- Headache, Any Grade (100 mg (N = 4)): 2 (50.0) n (%)
- Headache, ≥ Grade 3 (100 mg (N = 4)): 0 (0.0) n (%)
- Hemoglobin decreased, Any Grade (100 mg (N = 4)): 0 (0.0) n (%)
- Hemoglobin decreased, ≥ Grade 3 (100 mg (N = 4)): 0 (0.0) n (%)
- Investigations, Any Grade (100 mg (N = 4)): 3 (75.0) n (%)
- Investigations, ≥ Grade 3 (100 mg (N = 4)): 1 (25.0) n (%)
- Lipase increased, Any Grade (100 mg (N = 4)): 0 (0.0) n (%)
- Lipase increased, ≥ Grade 3 (100 mg (N = 4)): 0 (0.0) n (%)
- Malaise, Any Grade (100 mg (N = 4)): 0 (0.0) n (%)
- Malaise, ≥ Grade 3 (100 mg (N = 4)): 0 (0.0) n (%)
- Metabolism and nutrition disorders, Any Grade (100 mg (N = 4)): 3 (75.0) n (%)
- Metabolism and nutrition disorders, ≥ Grade 3 (100 mg (N = 4)): 0 (0.0) n (%)
- Musculoskeletal and connective tissue disorders, Any Grade (100 mg (N = 4)): 0 (0.0) n (%)
- Musculoskeletal and connective tissue disorders, ≥ Grade 3 (100 mg (N = 4)): 0 (0.0) n (%)
- Nausea, Any Grade (100 mg (N = 4)): 0 (0.0) n (%)
- Nausea, ≥ Grade 3 (100 mg (N = 4)): 0 (0.0) n (%)
- Nervous system disorders, Any Grade (100 mg (N = 4)): 3 (75.0) n (%)
- Nervous system disorders, ≥ Grade 3 (100 mg (N = 4)): 0 (0.0) n (%)
- Participants with any TEAE, Any Grade (100 mg (N = 4)): 4 (100.0) n (%)
- Participants with any TEAE, ≥ Grade 3 (100 mg (N = 4)): 1 (25.0) n (%)
- Platelet count decreased, Any Grade (100 mg (N = 4)): 1 (25.0) n (%)
- Platelet count decreased, ≥ Grade 3 (100 mg (N = 4)): 0 (0.0) n (%)
- Proteinuria, Any Grade (100 mg (N = 4)): 0 (0.0) n (%)
- Proteinuria, ≥ Grade 3 (100 mg (N = 4)): 0 (0.0) n (%)
- Renal and urinary disorders, Any Grade (100 mg (N = 4)): 1 (25.0) n (%)
- Renal and urinary disorders, ≥ Grade 3 (100 mg (N = 4)): 0 (0.0) n (%)
- Subjects with any TEAE (100 mg (N = 4)): 4 (100.0) n (%)
- Subjects with any drug-related TEAE (100 mg (N = 4)): 4 (100.0) n (%)
- Vomiting, Any Grade (100 mg (N = 4)): 2 (50.0) n (%)
- Vomiting, ≥ Grade 3 (100 mg (N = 4)): 1 (25.0) n (%)
- White blood cell count decreased, Any Grade (100 mg (N = 4)): 0 (0.0) n (%)
- White blood cell count decreased, ≥ Grade 3 (100 mg (N = 4)): 0 (0.0) n (%)
- Alanine aminotransferase increased, Any Grade (200 mg (N = 5)): 0 (0.0) n (%)
- Alanine aminotransferase increased, ≥ Grade 3 (200 mg (N = 5)): 0 (0.0) n (%)
- Anemia, Any Grade (200 mg (N = 5)): 1 (20.0) n (%)
- Anemia, ≥ Grade 3 (200 mg (N = 5)): 0 (0.0) n (%)
- Any TEAE: Grade 3 (200 mg (N = 5)): 1 (20.0) n (%)
- Any TEAE: Leading to death (200 mg (N = 5)): 0 (0.0) n (%)
- Any TEAE: Leading to dose reduction (200 mg (N = 5)): 0 (0.0) n (%)
- Any TEAE: Leading to treatment discontinuation (200 mg (N = 5)): 0 (0.0) n (%)
- Any TEAE: Leading to treatment interruption (200 mg (N = 5)): 0 (0.0) n (%)
- Any TEAE: SAE (200 mg (N = 5)): 0 (0.0) n (%)
- Aspartate aminotransferase increased, Any Grade (200 mg (N = 5)): 1 (20.0) n (%)
- Aspartate aminotransferase increased, ≥ Grade 3 (200 mg (N = 5)): 0 (0.0) n (%)
- Blood and lymphatic system disorders, Any Grade (200 mg (N = 5)): 1 (20.0) n (%)
- Blood and lymphatic system disorders, ≥ Grade 3 (200 mg (N = 5)): 0 (0.0) n (%)
- Blood bilirubin increased, Any Grade (200 mg (N = 5)): 2 (40.0) n (%)
- Blood bilirubin increased, ≥ Grade 3 (200 mg (N = 5)): 0 (0.0) n (%)
- Cardiac disorders, Any Grade (200 mg (N = 5)): 1 (20.0) n (%)
- Cardiac disorders, ≥ Grade 3 (200 mg (N = 5)): 0 (0.0) n (%)
- Constipation, Any Grade (200 mg (N = 5)): 1 (20.0) n (%)
- Constipation, ≥ Grade 3 (200 mg (N = 5)): 0 (0.0) n (%)
- Decreased appetite, Any Grade (200 mg (N = 5)): 0 (0.0) n (%)
- Decreased appetite, ≥ Grade 3 (200 mg (N = 5)): 0 (0.0) n (%)
- Dizziness, Any Grade (200 mg (N = 5)): 0 (0.0) n (%)
- Dizziness, ≥ Grade 3 (200 mg (N = 5)): 0 (0.0) n (%)
- Drug-related TEAE: Grade 3 (200 mg (N = 5)): 1 (20.0) n (%)
- Drug-related TEAE: Leading to death (200 mg (N = 5)): 0 (0.0) n (%)
- Drug-related TEAE: Leading to dose reduction (200 mg (N = 5)): 0 (0.0) n (%)
- Drug-related TEAE: Leading to treatment discontinuation (200 mg (N = 5)): 0 (0.0) n (%)
- Drug-related TEAE: Leading to treatment interruption (200 mg (N = 5)): 0 (0.0) n (%)
- Drug-related TEAE: SAE (200 mg (N = 5)): 0 (0.0) n (%)
- Fatigue, Any Grade (200 mg (N = 5)): 1 (20.0) n (%)
- Fatigue, ≥ Grade 3 (200 mg (N = 5)): 0 (0.0) n (%)
- Gastrointestinal disorders, Any Grade (200 mg (N = 5)): 3 (60.0) n (%)
- Gastrointestinal disorders, ≥ Grade 3 (200 mg (N = 5)): 0 (0.0) n (%)
- General disorders and administration site conditions, Any Grade (200 mg (N = 5)): 2 (40.0) n (%)
- General disorders and administration site conditions, ≥ Grade 3 (200 mg (N = 5)): 0 (0.0) n (%)
- Headache, Any Grade (200 mg (N = 5)): 1 (20.0) n (%)

From publication PMC10327353 (Breast Cancer Research : BCR, 2023)
